Tests used:
[1] = target: T1, α1G T-type calcium channel (Homo sapiens, UniProt O43497); assay: Assay for % inhibiting activity against T-type calcium channel using FDSS6000 (fluo-3 calcium imaging, KCl activation); assay type: cell-based; conditions: HEK293, 10 μM; HEK293 cells stably expressing α1G T-type calcium channel and Kir2.1; compounds of the examples; read-out: FDSS (% inhibition)/10uM
T1 construct: host or cells: HEK293
Procedure, shortened: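 HEK293 cells stably expressing α1G and Kir2.1 loaded with 5 μM fluo-3/AM, then in HEPES buffer (pH 7.4) with 10 mM CaCl2. Compound applied 75 s before 75 mM KCl; intracellular Ca2+ read as […] area, % inhibition relative to untreated control.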

T1 sequence (O43497 whole entry): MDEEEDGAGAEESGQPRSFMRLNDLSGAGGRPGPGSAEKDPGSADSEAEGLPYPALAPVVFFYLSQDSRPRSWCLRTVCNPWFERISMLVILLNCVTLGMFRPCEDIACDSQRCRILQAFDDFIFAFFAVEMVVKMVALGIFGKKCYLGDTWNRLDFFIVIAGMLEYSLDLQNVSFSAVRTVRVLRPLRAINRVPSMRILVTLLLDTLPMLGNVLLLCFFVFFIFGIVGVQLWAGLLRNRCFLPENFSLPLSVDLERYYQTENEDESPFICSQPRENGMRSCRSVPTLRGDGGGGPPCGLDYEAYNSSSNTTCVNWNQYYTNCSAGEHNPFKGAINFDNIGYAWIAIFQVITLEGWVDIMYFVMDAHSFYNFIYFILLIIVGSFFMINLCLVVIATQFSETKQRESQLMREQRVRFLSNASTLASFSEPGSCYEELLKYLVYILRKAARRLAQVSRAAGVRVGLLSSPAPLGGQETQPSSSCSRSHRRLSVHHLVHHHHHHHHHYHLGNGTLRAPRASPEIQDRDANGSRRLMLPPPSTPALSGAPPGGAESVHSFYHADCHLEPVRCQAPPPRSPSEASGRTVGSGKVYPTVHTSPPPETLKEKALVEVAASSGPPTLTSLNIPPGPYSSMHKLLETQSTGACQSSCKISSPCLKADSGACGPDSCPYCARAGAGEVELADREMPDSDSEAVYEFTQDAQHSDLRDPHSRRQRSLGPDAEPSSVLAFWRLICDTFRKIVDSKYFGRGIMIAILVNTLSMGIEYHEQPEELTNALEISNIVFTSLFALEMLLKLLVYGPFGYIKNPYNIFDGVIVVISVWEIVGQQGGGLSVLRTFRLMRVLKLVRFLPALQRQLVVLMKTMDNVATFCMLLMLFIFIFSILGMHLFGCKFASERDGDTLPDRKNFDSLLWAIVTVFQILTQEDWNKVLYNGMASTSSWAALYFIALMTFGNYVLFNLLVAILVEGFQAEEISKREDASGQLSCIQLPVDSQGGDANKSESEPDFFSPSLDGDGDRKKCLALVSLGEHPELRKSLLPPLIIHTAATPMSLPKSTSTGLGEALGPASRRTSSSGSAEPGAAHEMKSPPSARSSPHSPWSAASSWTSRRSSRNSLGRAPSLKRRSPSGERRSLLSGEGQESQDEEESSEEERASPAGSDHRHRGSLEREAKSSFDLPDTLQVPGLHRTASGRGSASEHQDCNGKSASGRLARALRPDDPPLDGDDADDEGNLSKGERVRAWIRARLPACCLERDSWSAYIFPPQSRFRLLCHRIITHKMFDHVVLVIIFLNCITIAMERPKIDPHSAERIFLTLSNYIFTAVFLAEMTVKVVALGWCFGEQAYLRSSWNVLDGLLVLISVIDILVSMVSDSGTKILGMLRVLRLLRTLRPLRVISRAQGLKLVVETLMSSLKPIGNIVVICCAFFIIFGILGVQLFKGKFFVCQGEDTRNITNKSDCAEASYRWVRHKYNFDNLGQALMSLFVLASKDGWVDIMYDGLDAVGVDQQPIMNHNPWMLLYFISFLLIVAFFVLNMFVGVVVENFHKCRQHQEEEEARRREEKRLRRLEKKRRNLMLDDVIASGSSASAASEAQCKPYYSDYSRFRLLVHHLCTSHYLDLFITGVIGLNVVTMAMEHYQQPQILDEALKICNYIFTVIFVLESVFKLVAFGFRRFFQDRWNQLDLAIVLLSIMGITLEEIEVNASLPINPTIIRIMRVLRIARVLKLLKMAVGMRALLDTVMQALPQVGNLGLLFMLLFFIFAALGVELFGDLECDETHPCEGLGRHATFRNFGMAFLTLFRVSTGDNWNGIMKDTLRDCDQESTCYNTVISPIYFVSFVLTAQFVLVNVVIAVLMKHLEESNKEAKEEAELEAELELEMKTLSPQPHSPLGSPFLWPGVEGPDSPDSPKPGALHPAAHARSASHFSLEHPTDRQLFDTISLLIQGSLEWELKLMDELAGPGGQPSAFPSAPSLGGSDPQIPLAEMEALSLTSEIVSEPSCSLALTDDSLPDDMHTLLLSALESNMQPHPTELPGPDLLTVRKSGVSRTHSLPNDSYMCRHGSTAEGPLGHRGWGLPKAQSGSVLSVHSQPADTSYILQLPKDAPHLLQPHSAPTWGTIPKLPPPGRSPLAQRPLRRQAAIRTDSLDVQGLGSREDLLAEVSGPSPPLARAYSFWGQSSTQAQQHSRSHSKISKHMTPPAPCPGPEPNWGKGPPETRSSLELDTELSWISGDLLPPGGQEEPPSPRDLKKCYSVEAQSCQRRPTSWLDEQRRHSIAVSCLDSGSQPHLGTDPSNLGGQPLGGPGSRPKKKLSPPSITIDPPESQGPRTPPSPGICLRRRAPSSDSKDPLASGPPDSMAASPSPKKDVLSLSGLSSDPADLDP

| SMILES | melting point | inhibition at 10 µM [1] |
| --- | --- | --- |
| CN1C(=NCC2CCCCC2)SCC1CC(=O)Nc1cc(C(F)(F)F)cc(C(F)(F)F)c1.Cl (stereo not shown) [KHG24218, (2-cyclohexylmethylimino-3-methyl-1,3-thiazolidine-4-yl)-N-(3,5-ditrifluoromethylphenyl)-acetamide hydrochloride] | 119.6 °C | 52.8% |
| CC(C)c1ccc(NC(=O)CC2CSC(=NCCc3ccccc3)N2C)cc1.Cl (stereo not shown) [KHG24220, (2-phenethylimino-3-methyl-1,3-thiazolidine-4-yl)-N-(4-isopropylphenyl)-acetamide hydrochloride] | 225 °C | 40.8% |
| CC(C)c1ccc(NC(=O)CC2CSC(=NCC3CCCCC3)N2C)cc1.Cl (stereo not shown) [KHG24222, (2-cyclohexylmethylimino-3-methyl-1,3-thiazolidine-4-yl)-N-(4-isopropylphenyl)-acetamide hydrochloride] | 250.7 °C | 34.8% |
| CN1C(=NCCc2ccccc2)SCC1CC(=O)Nc1ccc(Oc2ccccc2)cc1.Cl (stereo not shown) [KHG24224, (2-phenethylimino-3-methyl-1,3-thiazolidine-4-yl)-N-(4-phenoxyphenyl)-acetamide hydrochloride] | 225.5 °C | 32% |
| CN1C(=NCCc2ccccc2)SCC1CC(=O)Nc1ccc(Cl)cc1.Cl (stereo not shown) [KHG24228, (2-phenethylimino-3-methyl-1,3-thiazolidine-4-yl)-N-(4-chlorophenyl)-acetamide hydrochloride] | 226.7 °C | 48.6% |
| CN1C(=NCC2CCCCC2)SCC1CC(=O)Nc1ccc(Cl)cc1.Cl (stereo not shown) [KHG24230, (2-cyclohexylmethylimino-3-methyl-1,3-thiazolidine-4-yl)-N-(4-chlorophenyl)-acetamide hydrochloride] | 177.1 °C | 33% |
| CN1C(=NCCc2ccccc2)SCC1CC(=O)Nc1cc([N+](=O)[O-])ccc1F.Cl (stereo not shown) [KHG24232, (2-phenethylimino-3-methyl-1,3-thiazolidine-4-yl)-N-(2-fluoro-5-nitrophenyl)-acetamide hydrochloride] | 196.4 °C | 33.7% |
| CN1C(=NCC2CCCCC2)SCC1CC(=O)Nc1cc([N+](=O)[O-])ccc1F.Cl (stereo not shown) [KHG24234, (2-cyclohexylmethylimino-3-methyl-1,3-thiazolidine-4-yl)-N-(2-fluoro-5-nitrophenyl)-acetamide hydrochloride] | 225 °C | 45.4% |
| CCN1C(=NC2CCCCC2)SCC1CC(=O)Nc1cc(C(F)(F)F)cc(C(F)(F)F)c1.Cl (stereo not shown) [KHG24261, [2-cyclohexylimino-3-ethyl-1,3-thiazolidine-4-yl]-N-(3,5-ditrifluoromethylphenyl)-acetamide hydrochloride] | 226.4 °C | 65% |
| CCCCN1C(=NC2CCCCC2)SCC1CC(=O)Nc1ccc(Cl)cc1.Cl (stereo not shown) [KHG24262, [2-cyclohexylimino-3-(n-butyl)-1,3-thiazolidine-4-yl]-N-(4-chlorophenyl)-acetamide hydrochloride] | 194.3 °C | 53% |
| CCCCN1C(=NC2CCCCC2)SCC1CC(=O)Nc1ccc(Br)cc1.Cl (stereo not shown) [KHG24263, [2-cyclohexylimino-3-(n-butyl)-1,3-thiazolidine-4-yl]-N-(4-bromophenyl)-acetamide hydrochloride] | 215.2 °C | 52.1% |
| Cl.O=C(CC1CSC(=NC2CCCCC2)N1C1CC1)Nc1cc(C(F)(F)F)cc(C(F)(F)F)c1 (stereo not shown) [KHG24267, [2-cyclohexylimino-3-cyclopropyl-1,3-thiazolidine-4-yl]-N-(3,5-ditrifluoromethylphenyl)-acetamide hydrochloride] | 197.3 °C | 71% |
| Cl.O=C(CC1CSC(=NC2CCCCC2)N1C1CC1)Nc1ccc(C(F)(F)F)cc1 (stereo not shown) [KHG24268, [2-cyclohexylimino-3-cyclopropyl-1,3-thiazolidine-4-yl]-N-(4-trifluoromethylphenyl)-acetamide hydrochloride] | 240.8 °C | 58.7% |
| CCCCc1ccc(NC(=O)CC2CSC(=NC3CCCCC3)N2C2CC2)cc1.Cl (stereo not shown) [KHG24270, [2-cyclohexylimino-3-cyclopropyl-1,3-thiazolidine-4-yl]-N-(4-n-butylphenyl)-acetamide hydrochloride] | 195.6 °C | 62.6% |
| Cl.O=C(CC1CSC(=NC2CCCCC2)N1C1CC1)Nc1cc(Cl)ccc1F (stereo not shown) [KHG24271, [2-cyclohexylimino-3-cyclopropyl-1,3-thiazolidine-4-yl]-N-(5-chloro-2-fluorophenyl)-acetamide hydrochloride] | 183.7 °C | 37.8% |

Other lines, results leading:

| melting point | inhibition at 10 µM [1] | SMILES |
| --- | --- | --- |
| 194.2 °C | 37.6% | CCc1ccc(NC(=O)CC2CSC(=NC3CCCCC3)N2C2CC2)cc1.Cl (stereo not shown) [KHG24272, [2-cyclohexylimino-3-cyclopropyl-1,3-thiazolidine-4-yl]-N-(4-ethylphenyl)-acetamide hydrochloride] |
| 188.9 °C | 48.5% | Cl.O=C(CC1CSC(=NC2CCCCC2)N1C1CC1)Nc1ccc(Br)cc1 (stereo not shown) [KHG24273, [2-cyclohexylimino-3-cyclopropyl-1,3-thiazolidine-4-yl]-N-(4-bromophenyl)-acetamide hydrochloride] |
| 160.3 °C | 42.8% | CCN1C(=NC2CCCCC2)SCC1CC(=O)Nc1ccc(Oc2ccccc2)cc1.Cl (stereo not shown) [KHG24276, [2-cyclohexylimino-3-ethyl-1,3-thiazolidine-4-yl]-N-(4-phenoxyphenyl)-acetamide hydrochloride] |
| 158.4 °C | 61.1% | CCCCc1ccc(NC(=O)CC2CSC(=NC3CCCCC3)N2CC)cc1.Cl (stereo not shown) [KHG24277, [2-cyclohexylimino-3-ethyl-1,3-thiazolidine-4-yl]-N-(4-n-butylphenyl)-acetamide hydrochloride] |
| 177 °C | 53.8% | CCN1C(=NC2CCCCC2)SCC1CC(=O)Nc1cc([N+](=O)[O-])ccc1F.Cl (stereo not shown) [KHG24278, [2-cyclohexylimino-3-ethyl-1,3-thiazolidine-4-yl]-N-(2-fluoro-5-nitrophenyl)-acetamide hydrochloride] |
| 211.9 °C | 44.1% | CCN1C(=NC2CCCCC2)SCC1CC(=O)Nc1ccc(C)cc1.Cl (stereo not shown) [KHG24279, [2-cyclohexylimino-3-ethyl-1,3-thiazolidine-4-yl]-N-(4-methylphenyl)-acetamide hydrochloride] |
| 191 °C | 54% | CCN1C(=NC2CCCCC2)SCC1CC(=O)Nc1ccc(C(F)(F)F)cc1.Cl (stereo not shown) [KHG24280, [2-cyclohexylimino-3-ethyl-1,3-thiazolidine-4-yl]-N-(4-trifluoromethylphenyl)-acetamide hydrochloride] |
| 213.3 °C | 31.4% | CCCCN1C(=NC2CCCCC2)SCC1CC(=O)Nc1ccc(Oc2ccccc2)cc1.Cl (stereo not shown) [KHG24281, [2-cyclohexylimino-3-(n-butyl)-1,3-thiazolidine-4-yl]-N-(4-phenoxyphenyl)-acetamide hydrochloride] |
| 209.1 °C | 43.6% | CCCCc1ccc(NC(=O)CC2CSC(=NC3CCCCC3)N2CCCC)cc1.Cl (stereo not shown) [KHG24282, [2-cyclohexylimino-3-(n-butyl)-1,3-thiazolidine-4-yl]-N-(4-n-butylphenyl)-acetamide hydrochloride] |
| 215.6 °C | 51.2% | CCCCN1C(=NC2CCCCC2)SCC1CC(=O)Nc1ccc(C(C)C)cc1.Cl (stereo not shown) [KHG24283, [2-cyclohexylimino-3-(n-butyl)-1,3-thiazolidine-4-yl]-N-(4-isopropylphenyl)-acetamide hydrochloride] |
| 203.5 °C | 44.6% | CCCCN1C(=NC2CCCCC2)SCC1CC(=O)Nc1ccc(F)cc1.Cl (stereo not shown) [KHG24284, [2-cyclohexylimino-3-(n-butyl)-1,3-thiazolidine-4-yl]-N-(4-fluorophenyl)-acetamide hydrochloride] |
| 183.4 °C | 46% | CCCCN1C(=NC2CCCCC2)SCC1CC(=O)Nc1ccc(C)cc1.Cl (stereo not shown) [KHG24285, [2-cyclohexylimino-3-(n-butyl)-1,3-thiazolidine-4-yl]-N-(4-methylphenyl)-acetamide hydrochloride] |
| 221.2 °C | 55.2% | CCCCN1C(=NC2CCCCC2)SCC1CC(=O)Nc1ccc(CC)cc1.Cl (stereo not shown) [KHG24286, [2-cyclohexylimino-3-(n-butyl)-1,3-thiazolidine-4-yl]-N-(4-ethylphenyl)-acetamide hydrochloride] |
| 206.8 °C | 58.5% | CCCN1C(=NC2CCCCC2)SCC1CC(=O)Nc1ccc(Cl)cc1.Cl (stereo not shown) [KHG24287, [2-cyclohexylimino-3-(n-propyl)-1,3-thiazolidine-4-yl]-N-(4-chlorophenyl)-acetamide hydrochloride] |
| 219.1 °C | 55% | CCCN1C(=NC2CCCCC2)SCC1CC(=O)Nc1ccc(Br)cc1.Cl (stereo not shown) [KHG24288, [2-cyclohexylimino-3-(n-propyl)-1,3-thiazolidine-4-yl]-N-(4-bromophenyl)-acetamide hydrochloride] |
| 230.3 °C | 62.2% | CCCN1C(=NC2CCCCC2)SCC1CC(=O)Nc1ccc(Oc2ccccc2)cc1.Cl (stereo not shown) [KHG24290, [2-cyclohexylimino-3-(n-propyl)-1,3-thiazolidine-4-yl]-N-(4-phenoxyphenyl)-acetamide hydrochloride] |
| 201.4 °C | 63.2% | CCCCc1ccc(NC(=O)CC2CSC(=NC3CCCCC3)N2CCC)cc1.Cl (stereo not shown) [KHG24291, [2-cyclohexylimino-3-(n-propyl)-1,3-thiazolidine-4-yl]-N-(4-n-butylphenyl)-acetamide hydrochloride] |
